In brackets after ≈: the same amount, converted by molar mass. Where two headings read alike, the source gives them in different places.
How the values were obtained:
[1] = test system: S. aureus resistant mutants with EF-G (fusA) mutations; assay: microbe, parasite or virus in culture; format: cell-based; conditions: Staphylococcus aureus
Method: (§1) Antimicrobial Susceptibility Tests. Susceptibility testing was performed in biological triplicate, using the micro-dilution broth method as outlined by the Clinical and Laboratory Standards Institute. Bacteria were cultured with cation-adjusted Muller-Hinton broth (Sigma-Aldrich, Cat #90922) in round-bottom 96-well plates (Corning, Cat #3788). Human serum (Ultrafiltrate, unspecified gender, 30K Dalton membrane filtered) was purchased from BioIVT (Hicksville, NY).
(§2) Selection of Resistant Mutants. Resistant mutants were selected via the large inoculum method. Briefly, S. aureus ATCC 29213 (1×10^9 CFU) were plated on 100 mm plates of LB agar containing 4, 2, 1, 0.5, and 0.25 μg/mL.
(§3) Sequencing of fusA. FusA was amplified by colony PCR. Colonies were picked and diluted in 100 μL sterile H2O. PCR reactions are setup by combining MiFi Mix (Bioline, London, UK), 20 μM primer mix [fusA-F2, fusA_seq1, Forward EF-G2, and Reverse EF-G](S. aureus ATCC 29213), template DNA, and H2O. Reactions were performed on C1000 Thermal Cycler (Bio-Rad, Hercules, CA) with the following conditions: 5 minutes denaturation at 95° C., followed by 30 cycles of 20 seconds at 95° C., 20 seconds at 50° C., and either 1 minute (fusA1) or 1.5 minutes (fusA2) at 72° C. A 10 μL portion of the PCR reaction mixture was analyzed by agarose gel to confirm the product. PCR reactions were purified using GeneJET PCR Purification Kit (Thermo Scientific). PCR amplicons were submitted to the Core DNA Sequencing Facility at the University of Illinois at Urbana-Champaign for Sanger sequencing with the following primers to sequence the fusA [fusA2, fusA_seq1, Forward EF-G2, Forward EF-G3, Forward EF-G4]

[2] = test system: FA-Resistant strains of S. aureus; assay: MIC against 11 FA-resistant strains generated at 4x-32x the MIC; format: cell-based
Method: as §1, §2, §3

[3] = test system: multidrug-resistant clinical isolates of S. aureus; assay: MIC against multidrug-resistant clinical isolates of S. aureus; format: cell-based; conditions: for MIC: Staphylococcus aureus, read-out: MIC
S. aureus ATCC BAA-1721 = assay: MIC against strain possessing the fusC gene; format: cell-based; conditions: Staphylococcus aureus, ATCCBAA1721
S. aureus ATCC 29213 = assay: Neutropenic thigh infection burden study, sensitive strain; format: in vivo; conditions: neutropenic CD-1 mice, 50 mg/kg IP at 1, 2, 3 h post infection, burden at 24 h
[4] = cited from earlier work

SMILES: CC(=O)O[C@H]1C[C@@]2(C)[C@@H](C[C@@H](O)[C@H]3[C@@]4(C)CC[C@@H](O)[C@@H](C)[C@@H]4CC[C@@]32C)/C1=C(\CCC=C(C)C)C(=O)O [FA, Fusidic acid]
- MIC ([1]; read-out: MIC for FA, strain FA-32X-1, EF-G H457Y): 128 µg/mL (≈ 248 µM)
- MIC ([1]; read-out: MIC for FA, strain FA-32X-2, EF-G T436I): 8 µg/mL (≈ 15.5 µM)
- MIC ([1]; read-out: MIC for FA, strain FA-32X-3, EF-G H457Y): 128 µg/mL (≈ 248 µM)
- MIC ([1]; read-out: MIC for FA, strain FA-32X-6, EF-G T436I): 16 µg/mL (≈ 31 µM)
- MIC ([1]; read-out: MIC for FA, strain FA-32X-7, EF-G H457Y): 128 µg/mL (≈ 248 µM)
- MIC ([1]; read-out: MIC for FA, strain FA-32X-8, EF-G H457Y): 128 µg/mL (≈ 248 µM)
- MIC ([1]; read-out: MIC for FA, strain FA-32X-10, EF-G H457Y): 128 µg/mL (≈ 248 µM)
- MIC ([1]; read-out: MIC for FA, strain FA-32X-12, EF-G H457Y): 128 µg/mL (≈ 248 µM)
- MIC ([1]; read-out: MIC for FA, strain FA-32X-13, EF-G H457Y): 128 µg/mL (≈ 248 µM)
- MIC ([1]; read-out: MIC for FA, strain FA-32X-14, EF-G H457Y): 128 µg/mL (≈ 248 µM)
- MIC ([1]; read-out: MIC for FA, strain FA-32X-15, EF-G H457Y): 128 µg/mL (≈ 248 µM)
- MIC ([1]; read-out: MIC for FA, strain FA-32X-19, EF-G H457Y): 128 µg/mL (≈ 248 µM)
- MIC ([1]; read-out: MIC for FA, strain FA-32X-20, EF-G H457Y): 128 µg/mL (≈ 248 µM)
- MIC ([2]; Staphylococcus aureus, strain FA-4X-A, EF-G T385N): 8 µg/mL (≈ 15.5 µM)
- MIC ([2]; Staphylococcus aureus, strain FA-4X-B, EF-G T385N): 8 µg/mL (≈ 15.5 µM)
- MIC ([2]; Staphylococcus aureus, strain FA-8X-A, EF-G T385N): 8 µg/mL (≈ 15.5 µM)
- MIC ([2]; Staphylococcus aureus, strain FA-8X-B, EF-G R464L): 16 µg/mL (≈ 31 µM)
- MIC ([2]; Staphylococcus aureus, strain FA-16X-A, EF-G H457Y): 128 µg/mL (≈ 248 µM)
- MIC ([2]; Staphylococcus aureus, strain FA-32X-B, EF-G P406L): 32 µg/mL (≈ 61.9 µM)
- MIC ([2]; Staphylococcus aureus, strain FA-32X-D, EF-G T436I): 8 µg/mL (≈ 15.5 µM)
- MIC ([2]; strain FA-32×-B): 32 µg/mL (≈ 61.9 µM)
- Cross-resistance with vancomycin ([3]; 29 clinical isolates of S. aureus): no cross-resistance with vancomycin
- MIC ([3]; NRS3, S. aureus NRS3 (NARSA)): 0.0625 µg/mL (≈ 0.121 µM)
- MIC ([3]; NRS4, S. aureus NRS4 (NARSA)): 0.0625 µg/mL (≈ 0.121 µM)
- MIC ([3]; NRS17, S. aureus NRS17 (NARSA)): 0.0625 µg/mL (≈ 0.121 µM)
- MIC ([3]; NRS18, S. aureus NRS18 (NARSA)): 0.125 µg/mL (≈ 0.242 µM)
- MIC ([3]; NRS21, S. aureus NRS21 (NARSA)): 0.0625 µg/mL (≈ 0.121 µM)
- MIC ([3]; NRS22, S. aureus NRS22 (NARSA)): 0.0625 µg/mL (≈ 0.121 µM)
- MIC ([3]; NRS23, S. aureus NRS23 (NARSA)): 0.125 µg/mL (≈ 0.242 µM)
- MIC ([3]; NRS24, S. aureus NRS24 (NARSA)): 0.0625 µg/mL (≈ 0.121 µM)
- MIC ([3]; NRS26, S. aureus NRS26 (NARSA)): 0.0625 µg/mL (≈ 0.121 µM)
- MIC ([3]; NRS27, S. aureus NRS27 (NARSA)): 0.125 µg/mL (≈ 0.242 µM)
- MIC ([3]; NRS29, S. aureus NRS29 (NARSA)): 0.125 µg/mL (≈ 0.242 µM)
- MIC ([3]; NRS51, S. aureus NRS51 (NARSA)): 0.0625 µg/mL (≈ 0.121 µM)
- MIC ([3]; NRS68, S. aureus NRS68 (NARSA)): 0.125 µg/mL (≈ 0.242 µM)
- MIC ([3]; NRS73, S. aureus NRS73 (NARSA)): 0.125 µg/mL (≈ 0.242 µM)
- MIC ([3]; NRS74, S. aureus NRS74 (NARSA)): 0.125 µg/mL (≈ 0.242 µM)
- MIC ([3]; NRS76, S. aureus NRS76 (NARSA)): 0.125 µg/mL (≈ 0.242 µM)
- MIC ([3]; NRS77, S. aureus NRS77 (NARSA), no noted resistance): 0.0625 µg/mL (≈ 0.121 µM)
- MIC ([3]; NRS382, S. aureus NRS382 (NARSA)): 0.0625 µg/mL (≈ 0.121 µM)
- MIC ([3]; NRS383, S. aureus NRS383 (NARSA)): 0.125 µg/mL (≈ 0.242 µM)
- MIC ([3]; NRS384, S. aureus NRS384 (NARSA)): 0.125 µg/mL (≈ 0.242 µM)
- MIC ([3]; S. aureus AR0561 (CDC)): 0.125 µg/mL (≈ 0.242 µM)
- MIC ([3]; S. aureus AR0562 (CDC)): 0.125 µg/mL (≈ 0.242 µM)
- MIC ([3]; S. aureus AR0563 (CDC)): 0.125 µg/mL (≈ 0.242 µM)
- MIC ([3]; S. aureus AR0564 (CDC)): 0.125 µg/mL (≈ 0.242 µM)
- MIC ([3]; S. aureus AR0565 (CDC)): 0.0625 µg/mL (≈ 0.121 µM)
- MIC ([3]; S. aureus AR0566 (CDC)): 0.125 µg/mL (≈ 0.242 µM)
- MIC ([3]; S. aureus AR0567 (CDC)): 0.125 µg/mL (≈ 0.242 µM)
- MIC ([3]; S. aureus AR0568 (CDC)): 0.125 µg/mL (≈ 0.242 µM)
- MIC ([3]; S. aureus AR0570 (CDC)): 0.125 µg/mL (≈ 0.242 µM)
- MIC (S. aureus ATCC BAA-1721): 8 µg/mL (≈ 15.5 µM)
- Bacterial burden in thigh (S. aureus ATCC 29213): Significant reductions in bacterial burden
- Half-life in humans ([4]; in vivo): 10 to 14 h
- Cmax (drug plasma level) ([4]; patients, front-loading regimen 3 g first day, 1.2 g daily thereafter): greater than 130 μg/mL

— patent US20240109934A1, “ANTIBIOTICS WITH IMPROVED DRUG RESISTANCE PROFILE” (priority 2021, published 2024)
